Measured values reported in PMC4373826, “Antiviral Effect of Methylated Flavonol Isorhamnetin against Influenza” (PLoS ONE, 2015).
pEC50: −log10 of the molar value.

Tests used:
LC3B = test: Western blot for LC3B lipidation; assay type: cell-based, canine; details: 50 μM; post-treatment
Text: Autophagy can also be measured by changes in LC3B localization, because the degree of conversion of LC3B-I to LC3B-II provides an indicator of autophagic activity. Western blotting detected LC3B as 2 bands: cytosolic LC3B-I and membrane-bound LC3B-II (which is bound to the autophagosome membrane). The molecular weight of LC3B-II is greater than that of LC3B-I. However, due to its hydrophobicity, LC3B-II migrates faster in SDS-PAGE, and therefore, has a lower apparent molecular weight.
To prepare whole-cell extracts, cells were washed 3 times using cold PBS, scraped from the dishes, and suspended in protein extraction buffer containing 1% Triton X-100 (Amresco), 100 mM Tris-HCl, 10 mM NaCl, 10% glycerol, 1 mM sodium orthovanadate (Sigma-Aldrich), 50 mM sodium fluoride (Sigma-Aldrich), and 1 mM phenylmethylsulfonyl fluoride (PMSF; Sigma-Aldrich). After incubation on ice for 30 min, lysates were centrifuged and proteins in the supernatants were quantified using the Bradford Protein Assay Reagent (Bio-Rad). Protein samples were separated via 10% SDS-PAGE and transferred to nitrocellulose membranes ([…]; Protran, Newton, NJ, USA). The membranes were blocked using 5% nonfat dry milk and 0.1% Tween-20 in Tris-buffered saline and probed with the primary antibody. […]

Atg-5, Atg-7, and LC3B = test: RT-PCR of autophagy-related genes; assay type: cell-based, canine; details: 50 μM
Procedure: MDCK cells were seeded in 6-well plates and incubated overnight for 80% confluence. After the medium was removed, the cells were washed twice with PBS and infected with the virus as described in the antiviral assay section. Total RNA was isolated using Trizol (Invitrogen, Waltham, MA, USA) according to the manufacturer’s instructions. Synthesis of cDNA was performed using 5 μg of total RNA with MMLV reverse transcriptase (Promega, Madison, WI, USA). The primer sequences used in our study were as follows: HA (forward, 5′-[…]-3′;reverse,5′-[…]-TGACACT-3′); NA (forward, 5′-[…]-3′; reverse,5′-[…]-3); ATG-5 (forward, 5′-[…]-AACAG-3′; reverse, 5′-[…]-3′); ATG-7 (forward, 5′-[…]-3′; reverse, 5′-[…]-A-3′); LC3B (forward, 5′-[…]-3′; reverse, 5′-CTGG-[…]-3′); and GAPDH (forward, 5′-[…]-GGAGC-3′; reverse, 5′-[…]-3′).The expression of mRNA was normalized to that of the control housekeeping gene, GAPDH.

[1] = system: influenza viral genes HA and NA; test: RT-PCR of viral HA and NA genes; assay type: cell-based, influenza A virus
[2] = system: influenza A/PR/8/34 (H1N1); test: in vitro; details: dog, SI (selective index, CC50/EC50)
[3] = system: virus-induced autophagic puncta / acidic vesicular organelles in MDCK cells; test: Virus-induced autophagy assay (AVO staining with AO and MDC); assay type: cell-based, canine; details: 50 μM
Procedure: To examine the ability of isorhamnetin to block the formation of acidic vesicular organelles (AVOs) after influenza A virus infection, we used various vital staining methods for AVOs, as described previously. Briefly, MDCK cells were cultured on 24-well plates until 80% confluence. Cells were infected with influenza A/PR/08/34 (H1N1) virus as described previously and treated with 50 μM of isorhamnetin using the 3 aforementioned methods of flavonoid treatment (pre-treatment, co-treatment, and post-treatment methods). Cells were stained with 5 μg/mL acridine orange (AO) (Sigma-Aldrich) and 50 μM of monodansylcadaverine (MDC) (Sigma-Aldrich)for 15 min at 37°C and washed 3 times with PBS, after which the cells were examined under a fluorescence microscope (Carl Zeiss, Jena, Germany) to allow detection of autophagic puncta.

[4] = system: influenza A/PR/8/34 (H1N1) virus particles, chicken RBCs; details: lowest concentration
[5] = Cytotoxicity assay (EZ-Cytox) in MDCK cells; assay type: cell-based, canine; details: dog; MDCK cells, 48 hr
Procedure: To determine the 50% cytotoxic concentration (CC50) for each of the tested flavonoid compounds, MDCK cells were seeded onto 96-well plates (NUNC, Penfield, NY, USA) at a density of 1 × 10^4 cells per well and incubated overnight for 80% confluence. MDCK cells were washed twice with PBS and the culture medium was replaced with medium containing serially diluted flavonoids (concentrations from 10μM up to 300 μM) for 48 hr at 37°C in a 5% CO2atmosphere. After the incubation period, the flavonoid-containing media was replaced with new media containing 10% EZ-Cytox (Daeil Lab Service, Seoul, South Korea), and the cells were incubated in the dark for 3 hr at 37°C in a 5% CO2 atmosphere. The optical density was measured at 480 nm using an x-Mark spectrophotometer (Bio-Rad, Hercules, CA, USA). Cytotoxicity was estimated by comparing the cell survival rate of the flavonoids-treated cells and the DMSO-treated cells with the control (virus-untreated) cells. The control cell values were arbitrarily set as the 100% survival rate. The treated cells values were normalized to the control cell values. The calculation of CC50 was carried out as described in detail in S1 Text.
The 50% cytotoxic concentration (CC50) was calculated according to the following equation:
Cytotoxicity (%) = [100-(ODt/ODs)] x100
ODt: The optical density (OD) of cells treated with the tested flavonoids.
ODs: The OD of cells treated with the control solvent (0.2 % DMSO).
After obtaining the results, we calculated the concentration that induces 50% cell death using the following equation:
(X2 - X1) X (50-Y1) / (Y2 - Y1) + X1. Where, X1 represents the lower concentration used in this experiment, while X2 represents the higher concentration. Y1 represents the mean of the percentage of the viable cells at X1 concentration. On the other hand, Y2 represents the mean of the percentage of the viable cells at X2 concentration.”

[6] = system: influenza A/PR/8/34 (H1N1)
[7] = system: influenza A/PR/8/34 (H1N1); test: microbe, parasite or virus in culture; details: MDCK

COc1cc(-c2oc3cc(O)cc(O)c3c(=O)c2O)ccc1O [Isorhamnetin, isorhamnetin]
lipidation of LC3B-II (LC3B): significantly suppressed
virus-induced overexpression of autophagy-related genes Atg-5, Atg-7, and LC3B (Atg-5, Atg-7, and LC3B): inhibited
expression of HA and NA [1]: markedly decreased
selectivity ratio ([2]; Co-treatment (2 hr)): > 9
selectivity ratio ([2]; Post-treatment): > 12
virus-induced autophagic puncta formation and AVO acidification ([3]; post-treatment): almost completely blocked
virus-induced autophagic puncta formation and acidification of AVOs ([3]; pre-, co-, and post-treatment): significantly suppressed
hemolysis of chicken RBCs by the virus particle (HI assay) [4]: significantly inhibited
CC50 at 48 h [5]: > 280 µM
cell viability after viral infection [6]: increased cell viability in comparison with quercetin treatment
viral infection ([6]; 50 μM, co-treatment for 2 hr): significantly inhibited
influenza virus-induced cell death ([6]; post-treatment): apparent suppression
pEC50 ([7]; 0.5 h, Co-treatment (0.5 hr)): 4.12
pEC50 ([7]; 1 h, Co-treatment (1 hr)): 4.38
pEC50 ([7]; 2 h, Co-treatment (2 hr)): > 4.52
pEC50 ([7]; 48 h, Post-treatment): 4.64
pEC50 ([7]; Pre-treatment (1 hr)): 4.29
pEC50 ([7]; Pre-treatment (12 hr)): 4.19
pEC50 ([7]; Pre-treatment (24 hr)): 4.06
